In ChEMBL document CHEMBL1201862, “PubChem BioAssay data set” (2004):
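Where inhibition never reached the appropriate level, the endpoint shown equals the highest concentration tested. Otherwise, values were interpolated linearly from a five-concentration, 48-hour dose response in 96-well plates. Here, GI50 denotes the concentration required for 50% inhibition of growth.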 Calls of active or inactive are those of the source. Rule as the data show it: active = GI50 up to about 1.1 µM and inactive = higher.

Key:
Test in all cases: inhibition of tumour cell growth, NCI panel, 48 h
[1] = test system: ACHN
[2] = test system: CCRF-CEM
[3] = test system: DU-145
[4] = test system: HCT-116
[5] = test system: HOP-62
[6] = test system: HOP-92
[7] = test system: HT-29
[8] = test system: Hs-578T
[9] = test system: M14
[10] = test system: MDA-MB-231
[11] = test system: NCI-H460
[12] = test system: NCI-H522
[13] = test system: OVCAR-3
[14] = test system: OVCAR-8
[15] = test system: SF-295
[16] = test system: SF-539
[17] = test system: SK-OV-3
[18] = test system: SNB-75
[19] = test system: U-251
[20] = test system: UACC-62

Row | Compound | GI50 [1] | GI50 [2] | GI50 [3] | GI50 [4] | GI50 [5] | GI50 [6] | GI50 [7] | GI50 [8] | GI50 [9] | GI50 [10] | GI50 [11] | GI50 [12] | GI50 [13] | GI50 [14] | GI50 [15] | GI50 [16] | GI50 [17] | GI50 [18] | GI50 [19] | GI50 [20]
1 | CCN(CC)N1C(=O)[N-][N+](CC)(CC)C1=O | > 100 µM (inactive) | > 100 µM (inactive) | > 100 µM (inactive) | > 100 µM (inactive) | > 100 µM (inactive) | > 100 µM (inactive) | > 100 µM (inactive) | > 100 µM (inactive) | > 100 µM (inactive) | > 100 µM (inactive) | > 100 µM (inactive) | > 100 µM (inactive) | > 100 µM (inactive) | > 100 µM (inactive) | > 100 µM (inactive) | > 100 µM (inactive) | > 100 µM (inactive) | > 100 µM (inactive) | > 100 µM (inactive) | > 100 µM (inactive)
2 | CCc1nc(N)nc(N)c1-c1ccc(Cl)c(/N=C/N(C)C)c1 | 38.8 µM (inactive) | 30.3 µM (inactive) | 81.1 µM (inactive) | 10.3 µM (inactive) | 63.7 µM (inactive) | > 90.4 µM (inactive) | 18.8 µM (inactive) | > 100 µM (inactive) | 52.5 µM (inactive) | 81.3 µM (inactive) | 5.22 µM (inactive) | 24.1 µM (inactive) | 65.6 µM (inactive) | 44.4 µM (inactive) | 41.1 µM (inactive) | 45.3 µM (inactive) | > 100 µM (inactive) | > 96.4 µM (inactive) | 54.6 µM (inactive) | 35.8 µM (inactive)
3 | O=c1c(C(c2ccc3c(c2)Cc2ccccc2-3)c2c(O)oc3ccccc3c2=O)c(O)oc2ccccc12 | 23.9 µM (inactive) | 40.4 µM (inactive) | 33.6 µM (inactive) | 35.6 µM (inactive) | 32.5 µM (inactive) | 19.1 µM (inactive) | > 100 µM (inactive) | 25.6 µM (inactive) | 20.5 µM (inactive) | 28.2 µM (inactive) | 25.9 µM (inactive) | 21.9 µM (inactive) | 31 µM (inactive) | > 100 µM (inactive) | 25.2 µM (inactive) | 21.4 µM (inactive) | 31.3 µM (inactive) | 20.7 µM (inactive) | 23.9 µM (inactive) | 22.3 µM (inactive)
4 | Nc1ccc2nc3c(nc2c1)C(=O)c1ccccc1-3 | > 100 µM (inactive) | 84.3 µM (inactive) | > 100 µM (inactive) | > 100 µM (inactive) | > 100 µM (inactive) | > 100 µM (inactive) | > 100 µM (inactive) | > 100 µM (inactive) | > 100 µM (inactive) | > 100 µM (inactive) | 69.2 µM (inactive) | > 100 µM (inactive) | > 100 µM (inactive) | > 100 µM (inactive) | > 100 µM (inactive) | > 100 µM (inactive) | > 100 µM (inactive) | > 100 µM (inactive) | > 100 µM (inactive) | > 100 µM (inactive)
5 | CCCCCCCCCC(=O)N[C@@H](c1ccco1)[C@@H](O)C(=O)O[C@H]1C[C@@]2(O)[C@@H](OC(=O)c3ccccc3)[C@@H]3[C@]4(OC(C)=O)CO[C@@H]4C[C@H](O)[C@@]3(C)C(=O)[C@H](OC(C)=O)C(=C1C)C2(C)C | 2.92 µM (inactive) | 0.0178 µM (active) | 0.106 µM (active) | 0.00539 µM (active) | 0.0593 µM (active) | 0.0296 µM (active) | 0.00598 µM (active) | 0.00865 µM (active) | 0.0308 µM (active) | 0.101 µM (active) | 0.0118 µM (active) | 0.0149 µM (active) | 0.00914 µM (active) | 0.0298 µM (active) | 0.0389 µM (active) | 0.0228 µM (active) | 0.0269 µM (active) | 0.989 µM (active) | < 0.0241 µM (active) | 0.0467 µM (active)
6 | CCOC(=O)C(SCCO)C(C(=O)OCC)n1cnc2c(=O)[nH]c(NC(C)=O)nc21 (stereo not given) | > 100 µM (inactive) | > 100 µM (inactive) | > 100 µM (inactive) | > 100 µM (inactive) | > 100 µM (inactive) | > 100 µM (inactive) | > 100 µM (inactive) | > 100 µM (inactive) | > 100 µM (inactive) | > 100 µM (inactive) | > 100 µM (inactive) | > 100 µM (inactive) | > 100 µM (inactive) | > 100 µM (inactive) | > 100 µM (inactive) | > 100 µM (inactive) | > 100 µM (inactive) | > 100 µM (inactive) | > 100 µM (inactive) | > 100 µM (inactive)
